Earlier results as cited in patent publication US20070117750A1, “METHOD FOR ENHANCED OCULAR DRUG PENETRATION” (priority 2005, published 2007).

Columns and labels:
[1] = topical instillation
[2] = topical ocular dose of 225 μg

Row | Structure (SMILES) | peak concentration time, aqueous humor [1] | peak concentration time, iris ciliary/body ([1]; or first time interval that can be measured) | systemic bioavailability [2]
1 | Clc1cccc(Cl)c1N=C1NCCN1 [clonidine] | 15 min | 2 min | 
2 | CC(C(=O)O)c1ccc(-c2ccccc2)c(F)c1 (stereo not drawn) [flurbiprofen] |  |  | 74%
